Results taken from patent publication US20230077362A1 (CORTEVA AGRISCIENCE LLC, priority 2019, published 2023).
Where two headings read alike, the source gives them in different places.

Columns and labels:
[1] = system: Beet Armyworm (Spodoptera exigua) ("BAW"), second instar larvae; assay: Bioassay on beet armyworm (BAW), 128-well diet tray assay; format: in vivo; settings: for pest or weed control at 50 µg/cm2: Spodoptera exigua; for BAW rating: C = not tested, D = no activity noticed
Outline: (§1)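 Each value represents average percent mortality from eight wells. Larvae were kept in clear-covered trays at 25° C. for five to seven days on a 14-hour light, 10-hour dark schedule before scoring.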

[2] = system: Cabbage Looper (Trichoplusia ni) ("CL"), second instar larvae; assay: Bioassay on cabbage looper (CL), 128-well diet tray assay; format: in vivo; settings: for CL rating: C = not tested, D = no activity noticed
Outline: as §1

[3] = Trichoplusia ni, read-out: CL rating
[4] = read-out: BAW (Biological Results, rating)
[5] = Trichoplusia ni, read-out: CL (Biological Results, rating)

## COC(C)c1ccc(C)cc1N1C(=O)CS/C1=N\C(=O)Nc1ccc(-c2cn(-c3ccc(C(F)(F)F)cc3)cn2)cc1C (stereo not drawn) [Compound J525, (Z)-1-(3-(2-(1-Methoxyethyl)-5-methylphenyl)-4-oxothiazolidin-2-ylidene)-3-(2-methyl-4-(1-(4-(trifluoromethyl)phenyl)-1H-imidazol-4-yl)phenyl)urea]
[1]; read-out: BAW rating
  pest or weed control at 50 µg/cm2: 50 to 100%
[2]; [3]
  pest or weed control at 50 µg/cm2: 50 to 100%

## Cc1ccc(COCC(F)(F)F)c(N2C(=O)CS/C2=N\C(=O)Nc2ccc(-n3cnc(-c4ccc(C(F)(F)F)cc4)n3)cc2F)c1 [Compound J698, (Z)-1-(2-fluoro-4-(3-(4-(trifluoromethyl)phenyl)-1H-1,2,4-triazol-1-yl)phenyl)-3-(3-(5-methyl-2-((2,2,2-trifluoroethoxy)methyl)phenyl)-4-oxothiazolidin-2-ylidene)urea]
[1]; read-out: BAW rating
  pest or weed control at 50 µg/cm2: 50 to 100%
[2]; [3]
  pest or weed control at 50 µg/cm2: 50 to 100%

## COC(C)c1ccc(C)cc1N1C(=O)CS/C1=N\C(=O)Nc1ccc(-c2cn(-c3ccc(C(F)(F)F)cn3)cn2)cc1F (stereo not drawn) [Compound J461, (Z)-1-(2-Fluoro-4-(1-(5-(trifluoromethyl)pyridin-2-yl)-1H-imidazol-4-yl)phenyl)-3-(3-(2-(1-methoxyethyl)-5-methylphenyl)-4-oxothiazolidin-2-ylidene)urea]
[1]; read-out: BAW rating
  pest or weed control at 50 µg/cm2: 50 to 100%
[2]; [3]
  pest or weed control at 50 µg/cm2: 50 to 100%

## Cc1ccc(COCC(Cl)(Cl)Cl)c(N2C(=O)CS/C2=N\C(=O)Nc2ccc(-c3ncn(-c4ccc(C(F)(F)F)cc4)n3)cc2F)c1 [Compound J550]
[1]; Table ABC, species BAW
  BAW rating: A (50-100)
[2]; Table ABC, species CL
  CL rating: A (50-100)

## COCc1ccc(N(C)C)cc1N1C(=O)CS/C1=N\C(=O)Nc1ccc(-n2cnc(-c3ccc(OC(F)(F)F)cc3)c2)cc1Cl [Compound J789, (Z)-1-(2-Chloro-4-(4-(4-(trifluoromethoxy)phenyl)-1H-imidazol-1-yl)phenyl)-3-(3-(5-(dimethylamino)-2-(methoxymethyl)phenyl)-4-oxothiazolidin-2-ylidene)urea]
[1]; Table ABC, species BAW, 128-well diet tray assay, second instar larvae
  BAW rating (% control or mortality class): A (50-100)
[2]; Trichoplusia ni, Table ABC, species CL, 128-well diet tray assay, second instar larvae, read-out: CL rating (% control or mortality class)
  mortality at 50 µg/cm2: 50 to 100%

## Cc1ccc(COCC(F)(F)F)c(N2C(=O)CS/C2=N\C(=O)Nc2ccc(-c3ncn(-c4ccc(OC(F)(F)F)cc4)n3)cc2)c1 [Compound J331, (Z)-1-(3-(5-Methyl-2-((2,2,2-trifluoroethoxy)methyl)phenyl)-4-oxothiazolidin-2-ylidene)-3-(4-(1-(4-(trifluoromethoxy)phenyl)-1H-1,2,4-triazol-3-yl)phenyl)urea]
[1]; [4]
  pest or weed control at 50 µg/cm2: 50 to 100%
[2]; [5]
  pest or weed control at 50 µg/cm2: 50 to 100%

## CCCOc1ccc(C)cc1N1C(=O)CS/C1=N\C(=O)Nc1ccc(-c2cn(-c3ccc(S(F)(F)(F)(F)F)cc3)cn2)cc1F [Compound J595, (Z)-1-(2-Fluoro-4-(1-(4-(pentafluoro-λ^6-sulfaneyl)phenyl)-1H-imidazol-4-yl)phenyl)-3-(3-(5-methyl-2-propoxyphenyl)-4-oxothiazolidin-2-ylidene)urea]
[1]; read-out: BAW rating
  pest or weed control at 50 µg/cm2: 50 to 100%
[2]; [3]
  pest or weed control at 50 µg/cm2: 50 to 100%

## CCC(OC)c1ccc(C)cc1N1C(=O)CS/C1=N\C(=O)Nc1ccc(-c2ncn(-c3ccc(OC(F)(F)F)cc3)n2)cc1F (stereo not drawn) [Compound J421]
[1]; read-out: BAW rating
  pest or weed control at 50 µg/cm2: 50 to 100%
[2]; [3]
  pest or weed control at 50 µg/cm2: 50 to 100%

## Cc1cc(-c2ncn(-c3ccc(C(F)(F)F)cn3)n2)ccc1NC(=O)/N=C1\SCC(=O)N1c1cc(N(C)C)ccc1C(C)C [Compound J285, (Z)-1-(3-(5-(Dimethylamino)-2-isopropylphenyl)-4-oxothiazolidin-2-ylidene)-3-(2-methyl-4-(1-(5-(trifluoromethyl)pyridin-2-yl)-1H-1,2,4-triazol-3-yl)phenyl)urea]
[1]; [4]
  pest or weed control at 50 µg/cm2: 50 to 100%
[2]; [5]
  pest or weed control at 50 µg/cm2: 50 to 100%

## COCc1ccc(C)cc1N1C(=O)CS/C1=N\C(=O)Nc1ccc(-n2cnc(-c3ccc(OC(F)(F)F)cc3)n2)cc1Cl [Compound J730, (Z)-1-(2-Chloro-4-(3-(4-(trifluoromethoxy)phenyl)-1H-1,2,4-triazol-1-yl)phenyl)-3-(3-(2-(methoxymethyl)-5-methylphenyl)-4-oxothiazolidin-2-ylidene)urea]
[1]; read-out: BAW rating
  pest or weed control at 50 µg/cm2: 50 to 100%
[2]; [3]
  pest or weed control at 50 µg/cm2: 50 to 100%

## Cc1ccc(COCC(F)(F)F)c(N2C(=O)CS/C2=N\C(=O)Nc2ccc(-c3ncn(-c4ccc(SC(F)(F)F)cc4)n3)cc2)c1 [Compound J367, (Z)-1-(3-(5-Methyl-2-((2,2,2-trifluoroethoxy)methyl)phenyl)-4-oxothiazolidin-2-ylidene)-3-(4-(1-(4-((trifluoromethyl)thio)phenyl)-1H-1,2,4-triazol-3-yl)phenyl)urea]
[1]; read-out: BAW rating
  pest or weed control at 50 µg/cm2: 50 to 100%
[2]; [3]
  pest or weed control at 50 µg/cm2: 50 to 100%

## Cc1ccc(OCC(F)(F)F)c(N2C(=O)CS/C2=N\C(=O)Nc2ccc(-c3ncn(-c4ccc(OC(F)(F)F)cc4)n3)cc2Cl)c1 [Compound J40, (Z)-1-(2-Chloro-4-(1-(4-(trifluoromethoxy)phenyl)-1H-1,2,4-triazol-3-yl)phenyl)-3-(3-(5-methyl-2-(2,2,2-trifluoroethoxy)phenyl)-4-oxothiazolidin-2-ylidene)urea]
[1]; [4]
  pest or weed control at 50 µg/cm2: 50 to 100%
[2]; [5]
  pest or weed control at 50 µg/cm2: 50 to 100%

## Cc1ccc(OCC(F)(F)F)c(N2C(=O)CS/C2=N\C(=O)Nc2ccc(-c3ncn(-c4ccc(OC(F)(F)F)cc4)n3)cc2Br)c1 [Compound J218, (Z)-1-(2-Bromo-4-(1-(4-(trifluoromethoxy)phenyl)-1H-1,2,4-triazol-3-yl)phenyl)-3-(3-(5-methyl-2-(2,2,2-trifluoroethoxy)phenyl)-4-oxothiazolidin-2-ylidene)urea]
[1]; [4]
  pest or weed control at 50 µg/cm2: 50 to 100%
[2]; [5]
  pest or weed control at 50 µg/cm2: 50 to 100%

## Cc1cccc(N2C(=O)CS/C2=N\C(=O)Nc2ccc(-c3ncn(-c4ccc(S(F)(F)(F)(F)F)cc4)n3)cc2F)c1COCC(F)(F)F [Compound J567]
[1]; Table ABC, species BAW
  BAW rating: A (50-100)
[2]; Table ABC, species CL
  CL rating: A (50-100)

## Cc1ccc(COCC(F)(F)F)c(N2C(=O)CS/C2=N\C(=O)Nc2ccc(-c3ncn(-c4ccc(C(F)(F)F)cn4)n3)cc2C(F)(F)F)c1 [Compound J304, (Z)-1-(3-(5-Methyl-2-((2,2,2-trifluoroethoxy)methyl)phenyl)-4-oxothiazolidin-2-ylidene)-3-(2-(trifluoromethyl)-4-(1-(5-(trifluoromethyl)pyridin-2-yl)-1H-1,2,4-triazol-3-yl)phenyl)urea]
[1]; [4]
  pest or weed control at 50 µg/cm2: 50 to 100%
[2]; [5]
  pest or weed control at 50 µg/cm2: 50 to 100%

## Cc1ccc(COCC(Cl)Cl)c(N2C(=O)CS/C2=N\C(=O)Nc2ccc(-c3ncn(-c4ccc(S(F)(F)(F)(F)F)cc4)n3)cc2C)c1 [Compound J556]
[1]; Table ABC, species BAW
  BAW rating: A (50-100)
[2]; Table ABC, species CL
  CL rating: A (50-100)

## COC(C)c1ccc(C)cc1N1C(=O)CS/C1=N\C(=O)Nc1ccc(-c2cn(-c3ccc(S(F)(F)(F)(F)F)cc3)cn2)cc1C (stereo not drawn) [Compound J614, (Z)-1-(3-(2-(1-Methoxyethyl)-5-methylphenyl)-4-oxothiazolidin-2-ylidene)-3-(2-methyl-4-(1-(4-(pentafluoro-λ^6-sulfaneyl)phenyl)-1H-imidazol-4-yl)phenyl)urea]
[1]; read-out: BAW rating
  pest or weed control at 50 µg/cm2: 50 to 100%
[2]; [3]
  pest or weed control at 50 µg/cm2: 50 to 100%

## Cc1ccc(C(C)C)c(N2C(=O)CS/C2=N\C(=O)Nc2ccc(-c3cn(-c4ccc(S(F)(F)(F)(F)F)cc4)cn3)cc2C)c1 [Compound J613, (Z)-1-(3-(2-Isopropyl-5-methylphenyl)-4-oxothiazolidin-2-ylidene)-3-(2-methyl-4-(1-(4-(pentafluoro-λ^6-sulfaneyl)phenyl)-1H-imidazol-4-yl)phenyl)urea]
[1]; read-out: BAW rating
  pest or weed control at 50 µg/cm2: 50 to 100%
[2]; [3]
  pest or weed control at 50 µg/cm2: 50 to 100%

## Cc1ccc(COCC(F)(F)F)c(N2C(=O)CS/C2=N\C(=O)Nc2ccc(-c3ncn(-c4ccc(OC(F)(F)F)cc4)n3)cc2F)c1C [Compound J678]
[1]; Table ABC, species BAW
  BAW rating: A (50-100)
[2]; Table ABC, species CL
  CL rating: A (50-100)

## COc1ccc(COCC(F)(F)F)c(N2C(=O)CS/C2=N\C(=O)Nc2ccc(-n3cnc(-c4ccc(C(F)(F)F)cc4)n3)cc2F)c1 [Compound J700, (Z)-1-(2-Fluoro-4-(3-(4-(trifluoromethyl)phenyl)-1H-1,2,4-triazol-1-yl)phenyl)-3-(3-(5-methoxy-2-((2,2,2-trifluoroethoxy)methyl)phenyl)-4-oxothiazolidin-2-ylidene)urea]
[1]; read-out: BAW rating
  pest or weed control at 50 µg/cm2: 50 to 100%
[2]; [3]
  pest or weed control at 50 µg/cm2: 50 to 100%

## Cc1cc(-c2ncn(-c3ccc(S(F)(F)(F)(F)F)cc3)n2)ccc1NC(=O)/N=C1\SCC(=O)N1c1cccc(C)c1COCC(F)(F)F [Compound J578]
[1]; Table ABC, species BAW
  BAW rating: A (50-100)
[2]; Table ABC, species CL
  CL rating: A (50-100)

## COc1ccc(C(C)C)c(N2C(=O)CS/C2=N\C(=O)Nc2ccc(-c3ncn(-c4ccc(OC(F)(F)C(F)(F)F)cc4)n3)cc2OC)c1 [Compound J29, (Z)-1-(3-(2-Isopropyl-5-methoxyphenyl)-4-oxothiazolidin-2-ylidene)-3-(2-methoxy-4-(1-(4-(perfluoroethoxy)phenyl)-1H-1,2,4-triazol-3-yl)phenyl)urea]
[1]; [4]
  pest or weed control at 50 µg/cm2: 50 to 100%
[2]; [5]
  pest or weed control at 50 µg/cm2: 50 to 100%

## COc1cc(-c2ncn(-c3ccc(C(F)(F)F)cc3)n2)ccc1NC(=O)/N=C1\SCC(=O)N1c1cc(C)ccc1C(C)C [Compound J13, (Z)-1-(3-(2-Isopropyl-5-methylphenyl)-4-oxothiazolidin-2-ylidene)-3-(2-methoxy-4-(1-(4-(trifluoromethyl)phenyl)-1H-1,2,4-triazol-3-yl)phenyl)urea]
[1]; [4]
  pest or weed control at 50 µg/cm2: 50 to 100%
[2]; [5]
  pest or weed control at 50 µg/cm2: 50 to 100%

## Cc1ccc(COCC(Cl)Cl)c(N2C(=O)CS/C2=N\C(=O)Nc2ccc(-c3ncn(-c4ccc(OC(F)(F)F)cc4)n3)cc2F)c1 [Compound J553]
[1]; Table ABC, species BAW
  BAW rating: A (50-100)
[2]; Table ABC, species CL
  CL rating: A (50-100)
